Results on nine molecules are retold here after US12018029B2, “Hexahydropyrrolo[3,4-c]pyrrole derivatives useful as LOX inhibitors” (THE INSTITUTE OF CANCER RESEARCH: ROYAL CANCER HOSPITAL, priority 2018, dated 2024).

Read-outs that look alike come from different tables or passages of the source.

One experiment deals with T1, LOX (Mus musculus, UniProt P28301).
T1 construct: Full length LOX cDNA was then PCR cloned into pEGFP-N1 (Clonetech), or biosensor vector proGFP2-N1; expressed in transfected cells; host or cells: MDCK cells grown as cysts on Matrigel
T1 sequence (P28301 163-411): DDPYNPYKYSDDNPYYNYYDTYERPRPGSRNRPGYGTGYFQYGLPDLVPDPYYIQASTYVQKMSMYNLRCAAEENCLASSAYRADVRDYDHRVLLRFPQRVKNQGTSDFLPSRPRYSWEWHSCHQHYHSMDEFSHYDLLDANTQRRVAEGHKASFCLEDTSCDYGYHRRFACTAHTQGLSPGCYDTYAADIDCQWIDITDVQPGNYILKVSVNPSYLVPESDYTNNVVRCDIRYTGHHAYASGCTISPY
The experiment in a line: LOX activity in cysts assay (roGFP2 LOX biosensor in MDCK cysts). The conditions noted are these: for inhibition at 10 µM: read-out: LOX biosensor inhibition (cyst) @ 10 μM. It is filed as cell-based. As for the experimental part:
LOX Activity in Cysts Assay (Tang et al, 2017).
Cell Culture and Transfection
Cell lines were purchased from American Type Culture Collection (ATCC). […] MDCK cell lines were cultured in Dulbecco's Modified Eagle Medium (DMEM):F12 media supplemented with 10% foetal bovine serum (FBS) and 1% Penicillin Streptomycin solution (Pen Strep). Cells were incubated at 37° C. in a humidified incubator with 5% CO2. Lipofectamine 3000 or lentivirus was used to transfect MDCK cells with GFP constructs and cells were selected with G418 (Life Technologies) at 5 mg/ml. Cell culture reagents were purchased from Life Technologies.
To produce MDCK cysts, cells were cultured on Matrigel (Corning) with 2% Matrigel supplemented in DMEM with 10% FBS. Cysts were allowed to form for 10 days before subsequent studies.
Cloning of LOX Expression Constructs
Mouse LOX cDNA was purchased from OriGene. Full length LOX cDNA was then PCR cloned into pEGFP-N1 (Clonetech), or biosensor vector proGFP2-N1 (Hanson, 2004) using the following primers, […] (forward primer) and […] (reverse primer). For the insertion into pEGFP-N1 or proGFP2-N1, NheI and XhoI restriction sites were added to forward and reverse primers accordingly. Mutant LOX constructs were made using QuickChange II site-directed mutagenesis kit (Agilent Technologies) following manufacture's protocol using LOX-GFP as template. To generate, roGFP2 versions of LOX mutant constructs, LOX mutant cDNA was transferred from pEGFP-N1 to proGFP2-N1 using NheI and XhoI.
Confocal Imaging and Imaging Analysis
Photomicrographs of live MDCK cysts with a Leica TCS SP8 X confocal system were used to image the biosensor. The oxidised biosensor was excited using a 405 nm laser, while the reduced biosensor was excited with a 488 nm laser. Emission of the biosensor was recorded at 500 nm˜530 nm range using sequential scans. Ratio images were generated following a published protocol {Kardash, 2011 #376}. Note, while the published protocol generates YFP/CFP ratio images, we used it to generate Oxidised/Reduced (roGFP2 ratio) ratio images. The roGFP2 ratio at the basal surface of MDCK cysts was used to indicate LOX inhibition. LOX inhibitors were added 30 min prior to imaging.
The inhibition of LOX in cysts treated with LOX inhibitors compared to control (DMSO vehicle treated) cysts is shown in Table 2. For clarity, readout for DMSO treated cysts represents 0% inhibition (no inhibition) and readout for BAPN at 1 mM is used as 100% inhibition (full inhibition).

For experiment [1], the system named is PDAC KPC TRP53 R172H (p53 mut) cells. The experiment in a line: PDAC allograft, primary tumour, R172H (p53 mut). The conditions noted are these: ratio of average tumour volume treated/vehicle; 200 mg/kg po qd; p<0.05. It is filed as in vivo, mouse. As to the method:
All procedures involving animals were approved by the Animal Welfare and Ethical Review Body of the Institute of Cancer Research and Cancer Research UK Manchester Institute in accordance with National Home Office regulations under the Animals (Scientific Procedures) Act 1986 and according to the guidelines of the Committee of the National Cancer Research Institute Tumour size was determined by caliper measurements of tumour length, width and depth and volume was calculated as volume=0.5236×length×width×depth (mm).
PDAC allografts: CD1 nu/nu female mice at 6 weeks of age were inoculated subcutaneously in the right flank with 2×10^6 PDAC KPC TRP53 R172H (p53 mut) cells at 100 ul suspension per animal. […] Tumours and weights are measured twice weekly using calipers. […] Frozen samples kept at −80 degree centigrade until being analysed and the fixed samples stained according to the desired marker.
For therapeutic efficacy assessment, the ratio of average tumour volume between compound treated and vehicle control treated (T/C) is calculated. […] The efficacy of LOX inhibitors described in this invention, as measured by T/C in a pancreatic cancer model, a colorectal cancer model and a breast cancer model is shown in Table 3 and is significant (p<0.05) for all the data presented.

The test system of experiment [2] is PDAC KP^flC (LOX H1 clone) cells. The experiment in a line: PDAC allograft, primary tumour, p53 wt, LOX o/e. The experiment is classed as in vivo, mouse. The conditions noted are these: ratio of average tumour volume treated/vehicle; 200 mg/kg po qd; p<0.05.
The mark [3] stands for this setting: 10 μM, MDCK cysts, DMSO = 0% inhibition, BAPN at 1 mM = 100% inhibition, inhibitors added 30 min prior to imaging.

Turning to `CCOc1ccc(N2C[C@H]3CN(CCCC#N)C[C@H]3C2)cc1` [Example 2, cis-4-(5-(4-Ethoxyphenyl)hexahydropyrrolo[3,4-c]pyrrol-2(1H)-yl)butanenitrile], at LOX (setting [3]), the inhibition (usually the drop in the measured response relative to a control, in per cent) at 10 µM was 65%.

Consider `CCOc1ccc(N2C[C@]3(C)CN(C(=O)NCCO)C[C@]3(C)C2)cc1` [Example 3, cis-5-(4-Ethoxyphenyl)-N-(2-hydroxyethyl)-3a,6a-dimethylhexahydropyrrolo[3,4-c]pyrrole-2(1H)-carboxamide], for which, at LOX (MDCK cysts, read-out: LOX biosensor IC50 (cyst)), the IC50 (as a rule, the concentration that gives 50% inhibition) came out at 1620 nM. Also, the inhibition at 10 µM on LOX (MDCK) is 100%. Further, in experiment [1], the “T/C, PDAC (mouse pancreatic carcinoma) primary tumour a) R172H (p53mut)” value was “a) 0.58”. In addition, the “T/C, PDAC (mouse pancreatic carcinoma) primary tumour b) p53wt, LOX o/e” value in experiment [2] was “b) 0.42”.

In the case of `C[C@@]12CN(C(=O)NCCO)C[C@]1(C)CN(c1ccc(N3CCN(S(C)(=O)=O)CC3)cc1)C2` [Example 28, cis-N-(2-Hydroxyethyl)-3a,6a-dimethyl-5-(4-(4-(methylsulfonyl)piperazin-1-yl)phenyl)hexahydropyrrolo[3,4-c]pyrrole-2(1H)-carboxamide], at LOX (setting [3]), the inhibition at 10 µM worked out at 94%.

As for `O=C(NC1CCCCC1)N1C[C@@H]2CN(c3ccc(N4CCS(=O)(=O)CC4)cc3)C[C@@H]2C1` [Example 9, cis-N-Cyclohexyl-5-(4-(1,1-dioxidothiomorpholino)phenyl)hexahydropyrrolo[3,4-c]pyrrole-2(1H)-carboxamide], on LOX (setting [3]), the inhibition at 10 µM was 100%.

As for `N#CCCCN1C[C@@H]2CN(c3ccc(N4CCS(=O)(=O)CC4)cc3)C[C@@H]2C1` [Example 32, cis-4-(5-(4-(1,1-Dioxidothiomorpholino)phenyl)hexahydropyrrolo[3,4-c]pyrrol-2(1H)-yl)butanenitrile], the inhibition at 10 µM at LOX (setting [3]) was found to be 100%.

In the case of `CCOc1ccc(N2C[C@H]3CN(C(=O)N4CCOCC4)C[C@H]3C2)cc1` [Example 37], the inhibition at 10 µM at LOX (setting [3]) came out at 100%.

On to `CCOc1ccc(N2C[C@H]3CN(C(=O)Oc4ccc([N+](=O)[O-])cc4)C[C@H]3C2)cc1` [Example 18, 4-Nitrophenyl 5-(4-ethoxyphenyl)hexahydropyrrolo[3,4-c]pyrrole-2(1H)-carboxylate], for which the inhibition at 10 µM at LOX (setting [3]) came to 97%.

`CCOc1ccc(N2C[C@H]3CN(C(=O)N4CCC(C#N)CC4)C[C@H]3C2)cc1` [Example 42, 1-(cis-5-(4-ethoxyphenyl)octahydropyrrolo[3,4-c]pyrrole-2-carbonyl)piperidine-4-carbonitrile]: on LOX (setting [3]), the inhibition at 10 µM was 72%.

As to `C[C@@]12CN(C(=O)NCCO)C[C@]1(C)CN(c1ccc(N3CCS(=O)(=O)CC3)cc1)C2` [Example 30, cis-5-(4-(1,1-Dioxidothiomorpholino)phenyl)-N-(2-hydroxyethyl)-3a,6a-dimethylhexahydropyrrolo[3,4-c]pyrrole-2(1H)-carboxamide], the inhibition at 10 µM at LOX (setting [3]) came to 59%.
